These are literature values, as cited in publication PMC3015105 (Bioorganic & medicinal chemistry letters, 2010).

For orientation: IC50 means the midpoint of a concentration-inhibition curve.

In series [1] the target is human dopamine transporter (hDAT) (Homo sapiens, UniProt Q01959). The settings on record: read-out: IC50 DAT inhibition; reported by Carroll.
Chain of human dopamine transporter (hDAT) (Q01959 whole entry): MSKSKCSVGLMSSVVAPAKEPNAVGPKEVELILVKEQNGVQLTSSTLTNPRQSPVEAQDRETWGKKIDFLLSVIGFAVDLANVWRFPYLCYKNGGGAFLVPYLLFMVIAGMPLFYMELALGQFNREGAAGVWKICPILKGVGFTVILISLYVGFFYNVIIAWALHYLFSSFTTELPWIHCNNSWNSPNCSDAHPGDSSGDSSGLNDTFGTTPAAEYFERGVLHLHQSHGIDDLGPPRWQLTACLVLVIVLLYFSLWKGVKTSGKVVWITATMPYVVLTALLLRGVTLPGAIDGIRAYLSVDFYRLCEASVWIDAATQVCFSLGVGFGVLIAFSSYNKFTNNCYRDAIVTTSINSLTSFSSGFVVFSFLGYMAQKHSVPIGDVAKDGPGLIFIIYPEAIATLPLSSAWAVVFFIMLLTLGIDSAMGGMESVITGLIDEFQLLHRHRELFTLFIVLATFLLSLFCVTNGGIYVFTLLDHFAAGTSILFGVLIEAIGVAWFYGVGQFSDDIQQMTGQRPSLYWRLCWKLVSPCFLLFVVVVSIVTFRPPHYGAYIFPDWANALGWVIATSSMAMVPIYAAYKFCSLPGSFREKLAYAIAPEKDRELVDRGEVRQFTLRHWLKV

With `Cc1cc(C2C3CCC(CC2c2ccc(Cl)cc2)S3)on1` (stereo not drawn) [2β-(3-methylisoxazol-5-yl)-3β-(4-chlorophenyl)-8-thiabicyclo[3.2.1]octane], in series [1], the concentration for half-maximal inhibition (IC50) is 590 pM.

Regarding `COC(=O)[C@H]1[C@@H](OC(=O)c2ccccc2)C[C@@H]2CC[C@H]1N2C` [Cocaine], the duration of action is 10 to 15 min and the “immediate effect (onset)” value was below 15 s.
